How the values were obtained:
[1] = target: Signal transducer and activator of transcription 3 (Homo sapiens, UniProt P40763); assay: Inhibition of SH2 domain of STAT3 (unknown origin) using (FITC)-GpYLPQTV as substrate at 30 uM preincubated for 15 mins before substrate addition measured after 90 mins by alphascreen based assay
[2] = target: Growth factor receptor-bound protein 2 (Homo sapiens, UniProt P62993); assay: Inhibition of SH2 domain of GRB2 (unknown origin) using FITC-PSpYVNVQN as substrate at 30 uM preincubated for 15 mins before substrate addition measured after 90 mins by alphascreen based assay
Chain of Growth factor receptor-bound protein 2 (P62993 whole entry, looked up, the tested form may be a part): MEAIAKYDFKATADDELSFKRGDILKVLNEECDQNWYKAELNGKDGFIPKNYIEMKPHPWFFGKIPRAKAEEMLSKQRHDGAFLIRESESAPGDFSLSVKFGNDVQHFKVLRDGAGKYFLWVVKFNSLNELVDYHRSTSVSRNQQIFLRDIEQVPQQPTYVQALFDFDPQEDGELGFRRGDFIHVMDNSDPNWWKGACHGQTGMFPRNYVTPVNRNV

[3] = target: Signal transducer and activator of transcription 1-alpha/beta (Homo sapiens) (UniProt P42224); assay: Inhibition of SH2 domain of STAT1 (unknown origin) using FITC-GpYDKPHVL as substrate at 30 uM preincubated for 15 mins before substrate addition measured after 90 mins by alphascreen based assay
Chain of Signal transducer and activator of transcription 1-alpha/beta (Homo sapiens) (P42224 whole entry, the tested form may be a part): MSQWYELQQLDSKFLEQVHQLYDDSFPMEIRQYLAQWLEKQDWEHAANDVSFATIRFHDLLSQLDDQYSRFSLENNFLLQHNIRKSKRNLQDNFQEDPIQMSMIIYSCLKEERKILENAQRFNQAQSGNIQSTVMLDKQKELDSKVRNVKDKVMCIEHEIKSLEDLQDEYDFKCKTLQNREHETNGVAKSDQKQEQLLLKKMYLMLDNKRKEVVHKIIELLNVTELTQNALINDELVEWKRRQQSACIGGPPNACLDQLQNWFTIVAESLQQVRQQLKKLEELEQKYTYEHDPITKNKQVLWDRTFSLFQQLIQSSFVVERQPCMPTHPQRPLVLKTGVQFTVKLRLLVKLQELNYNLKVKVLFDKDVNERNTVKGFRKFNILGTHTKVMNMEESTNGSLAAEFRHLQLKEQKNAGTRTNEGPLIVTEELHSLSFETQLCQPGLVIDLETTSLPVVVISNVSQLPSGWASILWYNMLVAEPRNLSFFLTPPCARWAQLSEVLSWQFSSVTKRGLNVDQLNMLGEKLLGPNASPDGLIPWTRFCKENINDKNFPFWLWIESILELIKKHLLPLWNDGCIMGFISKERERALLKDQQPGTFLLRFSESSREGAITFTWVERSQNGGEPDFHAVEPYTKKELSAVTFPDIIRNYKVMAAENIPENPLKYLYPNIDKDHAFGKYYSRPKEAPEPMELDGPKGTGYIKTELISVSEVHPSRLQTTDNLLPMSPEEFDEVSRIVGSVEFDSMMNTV

[4] = target: Signal transducer and activator of transcription 1-alpha/beta (Homo sapiens, UniProt P42224); assay: Inhibition of SH2 domain of STAT1 (unknown origin) using FITC-GpYDKPHVL as substrate preincubated for 15 mins before substrate addition measured after 90 mins by alphascreen based assay
Chain of Signal transducer and activator of transcription 1-alpha/beta (P42224 whole entry, the tested form may be a part): as above

[5] = test system: CCRF-CEM; assay: Cytotoxicity against human CCRF-CEM cells after 48 hrs by sulforhodamine B assay; assay type: functional
[6] = Cytotoxicity against human EKVX cells after 48 hrs by sulforhodamine B assay; assay type: functional
[7] = test system: NCI-H226; assay: Cytotoxicity against human NCI-H226 cells after 48 hrs by sulforhodamine B assay; assay type: functional; conditions: NCI-H226, 48 h
[8] = test system: COLO 205; assay: Cytotoxicity against human COLO205 cells after 48 hrs by sulforhodamine B assay; assay type: functional; conditions: COLO 205, 48 h
[9] = test system: KM12; assay: Cytotoxicity against human KM12 cells after 48 hrs by sulforhodamine B assay; assay type: functional; conditions: KM12, 48 h
[10] = test system: SW-620; assay: Cytotoxicity against human SW620 cells after 48 hrs by sulforhodamine B assay; assay type: functional; conditions: SW-620, 48 h
[11] = test system: U-251; assay: Cytotoxicity against human U251 cells after 48 hrs by sulforhodamine B assay; assay type: functional; conditions: U-251, 48 h
[12] = test system: LOX IMVI; assay: Cytotoxicity against human LOXIMVI cells after 48 hrs by sulforhodamine B assay; assay type: functional
[13] = test system: SK-MEL-2; assay: Cytotoxicity against human SK-MEL-2 cells after 48 hrs by sulforhodamine B assay; assay type: functional; conditions: SK-MEL-2, 48 h
[14] = Cytotoxicity against human UACC62 cells after 48 hrs by sulforhodamine B assay; assay type: functional; conditions: UACC-62, 48 h
[15] = Cytotoxicity against human OVCAR5 cells after 48 hrs by sulforhodamine B assay; assay type: functional; conditions: OVCAR-5, 48 h
[16] = test system: ACHN; assay: Cytotoxicity against human ACHN cells after 48 hrs by sulforhodamine B assay; assay type: functional
[17] = test system: RXF 393; assay: Cytotoxicity against human RXF393 cells after 48 hrs by sulforhodamine B assay; assay type: functional; conditions: RXF 393, 48 h
[18] = test system: SN12C; assay: Cytotoxicity against human SN12C cells after 48 hrs by sulforhodamine B assay; assay type: functional
[19] = test system: PC-3; assay: Cytotoxicity against human PC3 cells after 48 hrs by sulforhodamine B assay; assay type: functional; conditions: PC-3, 48 h
[20] = test system: MDA-MB-231; assay: Cytotoxicity against human MDA-MB-231 cells after 48 hrs by sulforhodamine B assay; assay type: functional; conditions: MDA-MB-231, 48 h
[21] = test system: BT-549; assay: Cytotoxicity against human BT549 cells after 48 hrs by sulforhodamine B assay; assay type: functional; conditions: BT-549, 48 h
[22] = read-out: LC50 (the source's name)
[23] = read-out: pLC50 (the source's name) (converted)

Chain of Signal transducer and activator of transcription 3 (P40763 whole entry, the tested form may be a part): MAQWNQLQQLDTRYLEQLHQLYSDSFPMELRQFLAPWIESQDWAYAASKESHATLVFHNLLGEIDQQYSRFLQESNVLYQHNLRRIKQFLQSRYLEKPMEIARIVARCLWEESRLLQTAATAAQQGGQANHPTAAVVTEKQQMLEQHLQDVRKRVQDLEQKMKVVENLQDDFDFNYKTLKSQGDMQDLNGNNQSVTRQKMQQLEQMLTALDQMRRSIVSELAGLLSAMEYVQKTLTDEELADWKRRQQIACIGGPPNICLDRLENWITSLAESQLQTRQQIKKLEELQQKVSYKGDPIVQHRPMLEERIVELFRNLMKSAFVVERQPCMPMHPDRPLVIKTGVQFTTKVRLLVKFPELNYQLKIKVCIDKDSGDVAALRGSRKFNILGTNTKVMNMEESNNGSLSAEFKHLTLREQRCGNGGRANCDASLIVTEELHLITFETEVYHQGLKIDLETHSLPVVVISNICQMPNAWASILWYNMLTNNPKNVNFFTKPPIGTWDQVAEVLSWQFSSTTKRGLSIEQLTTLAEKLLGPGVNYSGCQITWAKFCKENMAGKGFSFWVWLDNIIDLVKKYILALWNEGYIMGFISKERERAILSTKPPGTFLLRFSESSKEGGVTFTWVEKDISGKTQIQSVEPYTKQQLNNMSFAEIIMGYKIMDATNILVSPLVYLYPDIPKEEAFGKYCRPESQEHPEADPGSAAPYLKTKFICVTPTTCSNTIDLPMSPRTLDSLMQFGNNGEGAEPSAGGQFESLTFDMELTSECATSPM

O=C(Nc1nonc1-c1ccc(Cl)cc1)c1ccc(C(F)(F)F)cc1
inhibition [1]: 72% | inhibition [2]: 10.5% | inhibition [3]: 94.6% | IC50 [4]: 7.2 µM | GI50 ([5]; read-out: GI50): 0.842 µM | CC50 [5, 22]: > 100 µM | TGI ([5]; read-out: TGI): 10.7 µM | GI50 ([5]; read-out: pGI50 (converted)): 0.851 µM | CC50 [5, 23]: > 100 µM | TGI ([5]; read-out: pTGI (converted)): 10.7 µM | GI50 ([6]; read-out: GI50): 3.4 µM | CC50 [6, 22]: > 100 µM | TGI ([6]; read-out: TGI): 33.6 µM | GI50 ([6]; read-out: pGI50 (converted)): 3.39 µM | CC50 [6, 23]: > 100 µM | TGI ([6]; read-out: pTGI (converted)): 33.9 µM | GI50 ([7]; read-out: GI50): 2.48 µM | CC50 [7, 22]: > 100 µM | TGI ([7]; read-out: TGI): 7.85 µM | GI50 ([7]; read-out: pGI50 (converted)): 2.45 µM | CC50 [7, 23]: > 100 µM | TGI ([7]; read-out: pTGI (converted)): 7.76 µM | GI50 ([8]; read-out: GI50): 3.8 µM | CC50 [8, 22]: 41.3 µM | TGI ([8]; read-out: TGI): 12 µM | GI50 ([8]; read-out: pGI50 (converted)): 3.8 µM | CC50 [8, 23]: 41.7 µM | TGI ([8]; read-out: pTGI (converted)): 12 µM | GI50 ([9]; read-out: GI50): 3.06 µM | CC50 [9, 22]: > 100 µM | TGI ([9]; read-out: TGI): > 100 µM | GI50 ([9]; read-out: pGI50 (converted)): 3.09 µM | CC50 [9, 23]: > 100 µM | TGI ([9]; read-out: pTGI): > 100 µM | GI50 ([10]; read-out: GI50): 2.82 µM | CC50 [10, 22]: > 100 µM | TGI ([10]; read-out: TGI): > 100 µM | GI50 ([10]; read-out: pGI50 (converted)): 2.82 µM | CC50 [10, 23]: > 100 µM | TGI ([10]; read-out: pTGI): > 100 µM | GI50 ([11]; read-out: GI50): 2.19 µM | LC50 ([11]; read-out: LC50): > 100 µM | TGI ([11]; read-out: TGI): > 100 µM | GI50 ([11]; read-out: pGI50 (converted)): 2.19 µM | LC50 ([11]; read-out: pLC50 (converted)): > 100 µM | TGI ([11]; read-out: pTGI): > 100 µM | GI50 ([12]; read-out: GI50): 0.872 µM | LC50 ([12]; read-out: LC50): > 100 µM | TGI ([12]; read-out: TGI): 57 µM | GI50 ([12]; read-out: pGI50 (converted)): 0.871 µM | LC50 ([12]; read-out: pLC50 (converted)): > 100 µM | TGI ([12]; read-out: pTGI (converted)): 57.5 µM | GI50 ([13]; read-out: GI50): 2.1 µM | LC50 (concentration killing 50% of cells) ([13]; read-out: LC50): > 100 µM | TGI ([13]; read-out: TGI): 5.11 µM | GI50 ([13]; read-out: pGI50 (converted)): 2.09 µM | LC50 (concentration killing 50% of cells) ([13]; read-out: pLC50 (converted)): > 100 µM | TGI ([13]; read-out: pTGI (converted)): 5.13 µM | GI50 ([14]; read-out: GI50): 2.11 µM | CC50 [14, 22]: > 100 µM | TGI ([14]; read-out: TGI): 6.83 µM | GI50 ([14]; read-out: pGI50 (converted)): 2.09 µM | CC50 [14, 23]: > 100 µM | TGI ([14]; read-out: pTGI (converted)): 6.76 µM | GI50 ([15]; read-out: GI50): 3.98 µM | LC50 ([15]; read-out: LC50): > 100 µM | TGI ([15]; read-out: TGI): 96.3 µM | GI50 ([15]; read-out: pGI50 (converted)): 3.98 µM | LC50 ([15]; read-out: pLC50 (converted)): > 100 µM | TGI ([15]; read-out: pTGI (converted)): 95.5 µM | GI50 ([16]; read-out: GI50): 3.1 µM | CC50 [16, 22]: > 100 µM | TGI ([16]; read-out: TGI): 8.74 µM | GI50 ([16]; read-out: pGI50 (converted)): 3.09 µM | CC50 [16, 23]: > 100 µM | TGI ([16]; read-out: pTGI (converted)): 8.71 µM | GI50 ([17]; read-out: GI50): 2.21 µM | CC50 [17, 22]: > 100 µM | TGI ([17]; read-out: TGI): 6.07 µM | GI50 ([17]; read-out: pGI50 (converted)): 2.24 µM | CC50 [17, 23]: > 100 µM | TGI ([17]; read-out: pTGI (converted)): 6.03 µM | GI50 ([18]; read-out: GI50): 2.87 µM | CC50 [18, 22]: > 100 µM | TGI ([18]; read-out: TGI): > 100 µM | GI50 ([18]; read-out: pGI50 (converted)): 2.88 µM | CC50 [18, 23]: > 100 µM | TGI ([18]; read-out: pTGI): > 100 µM | GI50 ([19]; read-out: GI50): 1.38 µM | CC50 [19, 22]: > 100 µM | TGI ([19]; read-out: TGI): 8.91 µM | GI50 ([19]; read-out: pGI50 (converted)): 1.38 µM | CC50 [19, 23]: > 100 µM | TGI ([19]; read-out: pTGI (converted)): 8.91 µM | GI50 ([20]; read-out: GI50): 2.79 µM | LC50 ([20]; read-out: LC50): > 100 µM | TGI ([20]; read-out: TGI): 7.59 µM | GI50 ([20]; read-out: pGI50 (converted)): 2.82 µM | LC50 ([20]; read-out: pLC50 (converted)): > 100 µM | TGI ([20]; read-out: pTGI (converted)): 7.59 µM | GI50 ([21]; read-out: GI50): 2.22 µM | CC50 [21, 22]: > 100 µM | TGI ([21]; read-out: TGI): 7.66 µM | GI50 ([21]; read-out: pGI50 (converted)): 2.24 µM | CC50 [21, 23]: > 100 µM | TGI ([21]; read-out: pTGI (converted)): 7.59 µM

Reference: ChEMBL document CHEMBL3217756, “Biological and computational evaluation of an oxadiazole derivative (MD77) as a new lead for direct STAT3 inhibitors” (Medchemcomm, 2012)
